Where two headings read alike, the source gives them in different places.
Tests used:
A673 [1] = test: Intracellular ROS assay; format: cell-based, human; settings: A673, 5 μM RC16, 15 h
Protocol: Intracellular ROS were measured by OxiSelect™ Intracellular ROS Assay Kit (Cell Biolabs) following the manufacturer’s instructions. Briefly, cells (1 × 10^5/mL) were washed twice in PBS and incubated with 5 μM 2’,7’-dichlorodihydrofluorescein diacetate (H2DCFDA) 1 h at 37°C. After PBS washes, the medium was changed with a new one containing 5 μM RC16 for 15 h and 24 h. At the end of the treatment samples were washed with PBS and a mixture of medium and cell lysis buffer (1:1) was added for 5 min at 37°C. The fluorescence was read by a fluorimetric plate reader (Spectra max M2, Molecular Device). Excitation wavelength was 480 nm and emission wavelength was 530 nm.

[2] = tested on: Human Foreskin Keratinocytes (differentiated); test: MTT cell proliferation assay, normal keratinocytes; format: cell-based; settings: Keratinocyte, normal cells, read-out: Cell killing activity IC50
Protocol: (§1) Cells were plated in 96-well tissue culture plates at a density of 1 × 10^3 cells/well, allowed to attach 24 h, and then left untreated or treated with growth medium containing different concentrations of the tested RCn compounds previously dissolved in PBS. After different time periods the cell vitality was determined by MTT assay according to the manufacture’s instruction (Promega). Results are reported as the micromolar concentration of RCn reducing cell survival to 50% (IC50).

[3] = tested on: SH-SY5Y, A673 and 143.98.2 cells; test: Annexin V-FITC/7AAD flow cytometry (apoptosis); format: cell-based, human; settings: 5 μM RC16, 24 h, all cell lines
Protocol: SH-SY5Y, A673 and 143.98.2 cells were stained with Annexin V-FITC/7AAD according to the manufacturer’s instructions (Biosciences). Briefly, adherent cells were seeded in 6 multi wells at a concentration of 4.5 × 10^5 cells/well and after 24 h treated with 5 μM RC16 for15 h and 24 h. At the end of the treatment the cells were detached, washed twice with cold PBS and then suspended in annexin binding buffer containing 5 μl of Annexin V-FITC and 5 μl of 7AAD. The samples were gently vortexed and incubated 15 min at 25°C in the dark. Finally, 400 ul binding buffer were added to each tube and the samples were analyzed by BD LSR II (Biosciences). The analysis was performed by FlowJo software version 10.0.5.

WIDr = test: MTT cell proliferation assay, WIDr; format: cell-based; settings: Homo sapiens, adult tumor cell line, read-out: Cell killing activity IC50
Protocol: as §1

Neuro 2A = test: In vivo efficacy, metastatic model of murine neuroblastoma; set-up: species or system mouse
Protocol: An efficacy study was performed on an immunocompetent model of neuroblastoma. In this experiment A/J mice were i.v. injected with Neuro 2A (0.2 × 10^6 cells in 100 μL of PBS). After 5 days, the mice were randomized (six animals per group) and treated once with RC16 injected through the tail vein at doses of 20 μg or 40 μg/mouse or vehicle (PBS). After treatment animals were monitored for survival and endpoint criteria.
(§2) Endpoint criteria included tumor volume > 2000 mm3, body weight loss ≥ 20%, unusual mouse behavior, lack of movement and poor posture. Tumor size was measured using digital calipers on alternate days and tumor volume was calculated using the following formula: a x b^2 π/6 where a is the longest diameter and b is the shortest diameter. Mice were also weighed and observed 3 times per week for signs of endpoint condition.

A673 [4] = test: MTT cell proliferation assay, A673; format: cell-based; settings: Homo sapiens, A673, Ewing's Sarcoma, read-out: Cell killing activity IC50
Protocol: as §1

[5] = tested on: human tumor xenografts (CHLA-20, SK-N-AS, A673, A549, S462TY); test: In vivo efficacy, human tumor xenograft models
Protocol: Female athymic nude mice were subcutaneously injected with 5 × 10^6 human cancer cells in 150 μL mix of PBS and matrigel (2:1). The mice were then randomized into groups of six animals for each tumor type. This number was chosen because we sought a large effect size and to minimize numbers of mice. When tumors reached a mean volume of 150 mm^3, the animals were treated with RC16 or vehicle alone (PBS), given slowly through the tail vein at the dose of 1 mg/kg, 3 times a week for 3 weeks or orally gavaged at the dose of 2 mg/kg/day for 3 weeks.
as §2

Micelle size by TEM = format: physicochemical; settings: RC16 micelles self-assembled in water
Protocol: TEM studies were carried out on SH-SY5Y cells and HFs incubated with 5 μM RC16 for 24 h. Cells were seeded on cover glasses for 24 h and then the medium was replaced with a fresh one containing 5 μM RC16 for 24 h. At the end of the treatment the samples were washed with PBS and fixed with 2.5% glutaraldehyde in 0.1 M phosphate buffer for 2 h at 4°C and subsequently post-fixed with 1% OsO4 in 0.1 M phosphate buffer for 1 h at room temperature. After several washes the samples were dehydrated in an acetone series (70, 90, 100%) and embedded in Epon resin (Fluka, Sigma-Aldrich). Thin sections were collected on nickel grids, stained with uranyl acetate and lead citrate, and observed under a TEM (Philips CM10; FEI). Images were recorded using a Megaview III digital camera (FEI). […] To this purpose an aqueous solution of RC16 (20 μM) was stained with 2% (w/v) phosphotungstic acid for 3 min on a copper grid and subsequently it was visualized under TEM.

143.98.2 = test: MTT cell proliferation assay, 143.98.2; format: cell-based; settings: Homo sapiens, 143.98.2, Osteosarcoma, read-out: Cell killing activity IC50
Protocol: as §1

[6] = tested on: Human Gingival Fibroblasts; test: MTT cell proliferation assay, normal fibroblasts; format: cell-based; settings: Fibroblast, normal cells, read-out: Cell killing activity IC50
Protocol: as §1

A549 = test: MTT cell proliferation assay, A549; format: cell-based; settings: Homo sapiens, A549, adult tumor cell line, read-out: Cell killing activity IC50
Protocol: as §1

SK-N-AS = test: MTT cell proliferation assay, SK-N-AS; format: cell-based; settings: Homo sapiens, Neuroblastoma, read-out: Cell killing activity IC50
Protocol: as §1

In the case of `CCCCCCCCCCCCCCC1CN2CCCN3CCCCCC132` (stereo not drawn) [RC16, 2-tetradecyl-4,8-diazatricyclo[6.5.0.0^1,^4]tridecane], the “Intracellular ROS levels relative to control” value (A673 [1]) is reported as “more than twice the control values”, the IC50 ([2]; 24 h) is reported as 15.2 µM and the IC50 ([2]; 48 h) is reported as 13.5 µM. For the same compound, the “Apoptosis (sum of LR and UR quadrants)” value [3] was “approximately 100%”, the IC50 (WIDr; 24 h) was 7.3 µM and the IC50 (WIDr; 48 h) was 6.02 µM. For the same compound, the “Mean survival time versus controls” value (Neuro 2A; A/J mice, single i.v. dose 20 μg or 40 μg/mouse) was “significant increase in the mean survival time”, the “Treated mice healthy and alive, no macroscopic disease at necropsy” value (Neuro 2A; end of experiment (90 days), 20 μg or 40 μg/mouse i.v.) was 3 of the 12 and the IC50 (A673 [4]; 24 h) was 0.8 µM. For the same compound, the IC50 (A673 [4]; 48 h) was 0.65 µM, the “Antitumor activity (inhibition of tumor growth, RTV)” value ([5]; 1 mg/kg i.v. 3 times a week for 3 weeks or 2 mg/kg/day oral gavage for 3 weeks) was “strong antitumor activity” and the “Weight loss or signs of toxicity during treatment” value ([5]; i.v. 1 mg/kg 3 times a week or gavage 2 mg/kg/day, 3 weeks) was “No weight loss or signs of toxicity”. For the same compound, the Micelle mean diameter (Micelle size by TEM) was 20–30 nm, the IC50 (143.98.2; 24 h) was 0.5 µM and the IC50 (143.98.2; 48 h) was 0.32 µM. For the same compound, the IC50 ([6]; 24 h) was 11.8 µM, the IC50 ([6]; 48 h) was 10.5 µM and the IC50 (A549; 24 h) was 6.62 µM. The IC50 (A549; 48 h) was 5.58 µM, the IC50 (SK-N-AS; 24 h) was 0.88 µM and the IC50 (SK-N-AS; 48 h) was 0.67 µM.

Reference: paper PMC5040747, “Preparation and Evaluation of a Novel Class of Amphiphilic Amines as Antitumor Agents and Nanocarriers for Bioactive Molecules” (Pharmaceutical Research, 2016)
